Columns and labels:
Format in all cases: binding
[1] = target: T1, SW480 colon carcinoma cells lysate proteins (Homo sapiens, UniProt Q9BVC6); conditions: PreyGene TMEM109; SW480 cells
T1 sequence (Q9BVC6 34-243): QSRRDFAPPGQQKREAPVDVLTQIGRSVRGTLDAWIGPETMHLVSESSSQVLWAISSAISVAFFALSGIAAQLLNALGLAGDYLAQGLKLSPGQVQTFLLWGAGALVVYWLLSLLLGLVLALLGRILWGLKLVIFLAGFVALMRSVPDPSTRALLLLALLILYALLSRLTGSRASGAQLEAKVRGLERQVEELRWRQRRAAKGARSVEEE

[2] = target: T2, SW480 colon carcinoma cells lysate proteins (Homo sapiens, UniProt P06454); conditions: PreyGene PTMA
T2 sequence (P06454 1-111): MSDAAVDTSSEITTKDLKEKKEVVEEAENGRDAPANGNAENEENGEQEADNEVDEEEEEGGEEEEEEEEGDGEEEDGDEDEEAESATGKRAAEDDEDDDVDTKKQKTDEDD

[3] = target: SW480 colon carcinoma cells lysate proteins (Homo sapiens, UniProt P49327); conditions: PreyGene FASN
SW480 colon carcinoma cells lysate proteins (Homo sapiens, UniProt P49327), sequence (P49327 whole entry): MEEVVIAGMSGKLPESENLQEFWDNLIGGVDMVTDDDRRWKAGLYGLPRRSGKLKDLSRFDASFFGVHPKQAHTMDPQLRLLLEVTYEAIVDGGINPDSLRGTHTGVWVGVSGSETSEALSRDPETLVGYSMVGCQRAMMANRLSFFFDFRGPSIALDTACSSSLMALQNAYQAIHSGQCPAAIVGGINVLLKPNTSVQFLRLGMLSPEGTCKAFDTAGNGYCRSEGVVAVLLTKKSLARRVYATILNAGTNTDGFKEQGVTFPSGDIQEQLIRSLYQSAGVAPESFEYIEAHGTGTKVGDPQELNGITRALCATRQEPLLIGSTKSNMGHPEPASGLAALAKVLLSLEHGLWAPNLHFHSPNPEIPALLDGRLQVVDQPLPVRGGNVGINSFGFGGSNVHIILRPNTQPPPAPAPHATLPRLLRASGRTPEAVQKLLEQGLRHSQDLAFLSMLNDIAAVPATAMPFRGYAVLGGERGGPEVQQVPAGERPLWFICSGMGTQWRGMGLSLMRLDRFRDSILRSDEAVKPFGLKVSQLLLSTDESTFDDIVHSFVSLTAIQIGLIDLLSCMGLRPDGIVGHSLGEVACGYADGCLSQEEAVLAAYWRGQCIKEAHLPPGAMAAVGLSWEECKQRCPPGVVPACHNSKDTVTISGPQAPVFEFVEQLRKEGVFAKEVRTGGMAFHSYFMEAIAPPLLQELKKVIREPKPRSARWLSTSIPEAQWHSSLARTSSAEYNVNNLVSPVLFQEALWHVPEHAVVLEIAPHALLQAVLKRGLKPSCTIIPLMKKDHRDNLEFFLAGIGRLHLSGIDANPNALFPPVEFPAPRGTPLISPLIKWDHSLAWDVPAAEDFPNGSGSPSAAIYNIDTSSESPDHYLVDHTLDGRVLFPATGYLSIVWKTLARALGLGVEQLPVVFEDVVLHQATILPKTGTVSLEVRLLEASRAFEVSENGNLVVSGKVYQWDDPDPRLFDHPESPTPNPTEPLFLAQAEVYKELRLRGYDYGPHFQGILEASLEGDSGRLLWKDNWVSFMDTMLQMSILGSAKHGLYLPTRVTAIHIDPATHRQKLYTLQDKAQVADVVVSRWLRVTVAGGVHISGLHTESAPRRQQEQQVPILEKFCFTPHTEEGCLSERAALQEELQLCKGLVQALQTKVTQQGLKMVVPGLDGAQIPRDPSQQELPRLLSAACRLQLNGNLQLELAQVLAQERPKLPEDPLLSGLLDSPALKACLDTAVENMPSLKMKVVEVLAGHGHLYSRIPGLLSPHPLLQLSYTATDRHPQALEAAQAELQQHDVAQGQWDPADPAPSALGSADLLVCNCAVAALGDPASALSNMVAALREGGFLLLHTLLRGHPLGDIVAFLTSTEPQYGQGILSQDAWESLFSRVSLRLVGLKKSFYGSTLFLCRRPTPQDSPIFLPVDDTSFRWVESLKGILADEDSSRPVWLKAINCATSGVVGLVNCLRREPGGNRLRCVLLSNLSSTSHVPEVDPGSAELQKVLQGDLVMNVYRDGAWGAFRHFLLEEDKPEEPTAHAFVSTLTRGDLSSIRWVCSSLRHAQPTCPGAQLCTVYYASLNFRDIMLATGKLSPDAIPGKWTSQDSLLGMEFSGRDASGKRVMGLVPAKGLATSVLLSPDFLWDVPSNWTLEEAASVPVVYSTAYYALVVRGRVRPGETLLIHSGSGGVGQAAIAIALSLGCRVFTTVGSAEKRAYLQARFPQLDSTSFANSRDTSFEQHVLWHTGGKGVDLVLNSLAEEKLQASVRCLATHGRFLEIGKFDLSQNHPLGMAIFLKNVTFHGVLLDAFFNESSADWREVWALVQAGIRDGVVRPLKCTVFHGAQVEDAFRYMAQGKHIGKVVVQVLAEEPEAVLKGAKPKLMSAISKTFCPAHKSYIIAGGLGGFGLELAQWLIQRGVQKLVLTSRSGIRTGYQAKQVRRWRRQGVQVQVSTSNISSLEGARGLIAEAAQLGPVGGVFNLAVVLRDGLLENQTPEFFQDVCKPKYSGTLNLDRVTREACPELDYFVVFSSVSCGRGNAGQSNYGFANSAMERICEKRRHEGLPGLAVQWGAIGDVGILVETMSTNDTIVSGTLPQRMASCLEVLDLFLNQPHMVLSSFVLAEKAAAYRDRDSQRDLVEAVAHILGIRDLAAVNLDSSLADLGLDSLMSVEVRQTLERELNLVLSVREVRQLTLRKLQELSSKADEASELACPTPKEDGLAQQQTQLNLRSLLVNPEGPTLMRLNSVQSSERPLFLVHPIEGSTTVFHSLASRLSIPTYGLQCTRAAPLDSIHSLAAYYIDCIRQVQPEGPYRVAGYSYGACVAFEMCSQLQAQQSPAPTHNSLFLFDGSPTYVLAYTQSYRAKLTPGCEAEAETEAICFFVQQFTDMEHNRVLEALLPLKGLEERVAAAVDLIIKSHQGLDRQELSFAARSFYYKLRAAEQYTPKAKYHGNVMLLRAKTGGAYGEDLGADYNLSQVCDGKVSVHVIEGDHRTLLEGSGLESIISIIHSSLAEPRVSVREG

[4] = target: SW480 colon carcinoma cells lysate proteins (Homo sapiens, UniProt Q01105); conditions: PreyGene SET
SW480 colon carcinoma cells lysate proteins (Homo sapiens, UniProt Q01105), sequence (Q01105 whole entry): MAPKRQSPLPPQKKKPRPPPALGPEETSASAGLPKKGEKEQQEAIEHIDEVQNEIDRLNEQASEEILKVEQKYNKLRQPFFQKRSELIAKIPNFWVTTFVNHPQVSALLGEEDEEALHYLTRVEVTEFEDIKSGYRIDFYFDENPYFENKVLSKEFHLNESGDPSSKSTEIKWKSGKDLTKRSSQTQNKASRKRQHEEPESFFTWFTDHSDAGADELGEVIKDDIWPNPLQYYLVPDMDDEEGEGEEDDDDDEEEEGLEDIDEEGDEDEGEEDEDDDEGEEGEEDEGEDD

[5] = target: SW480 colon carcinoma cells lysate proteins (Homo sapiens, UniProt P31939); conditions: PreyGene ATIC
SW480 colon carcinoma cells lysate proteins (Homo sapiens, UniProt P31939), sequence (P31939 whole entry): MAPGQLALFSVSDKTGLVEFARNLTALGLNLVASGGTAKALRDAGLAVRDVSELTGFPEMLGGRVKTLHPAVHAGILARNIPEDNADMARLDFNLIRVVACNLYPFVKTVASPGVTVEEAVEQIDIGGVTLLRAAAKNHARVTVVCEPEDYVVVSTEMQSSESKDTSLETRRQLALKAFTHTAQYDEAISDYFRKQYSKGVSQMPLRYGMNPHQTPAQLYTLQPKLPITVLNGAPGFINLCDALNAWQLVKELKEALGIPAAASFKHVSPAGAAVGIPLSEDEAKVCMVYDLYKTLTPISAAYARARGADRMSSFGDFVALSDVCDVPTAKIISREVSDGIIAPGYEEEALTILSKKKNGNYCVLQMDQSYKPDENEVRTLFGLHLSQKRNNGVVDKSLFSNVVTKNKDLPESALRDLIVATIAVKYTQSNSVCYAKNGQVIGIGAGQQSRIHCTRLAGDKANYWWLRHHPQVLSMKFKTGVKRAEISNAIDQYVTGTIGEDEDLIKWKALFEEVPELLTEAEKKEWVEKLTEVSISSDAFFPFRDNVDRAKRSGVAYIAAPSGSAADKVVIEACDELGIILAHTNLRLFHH

[6] = target: SW480 colon carcinoma cells lysate proteins (Homo sapiens, UniProt Q99623); conditions: PreyGene PHB2; SW480 cells
SW480 colon carcinoma cells lysate proteins (Homo sapiens, UniProt Q99623), sequence (Q99623 whole entry): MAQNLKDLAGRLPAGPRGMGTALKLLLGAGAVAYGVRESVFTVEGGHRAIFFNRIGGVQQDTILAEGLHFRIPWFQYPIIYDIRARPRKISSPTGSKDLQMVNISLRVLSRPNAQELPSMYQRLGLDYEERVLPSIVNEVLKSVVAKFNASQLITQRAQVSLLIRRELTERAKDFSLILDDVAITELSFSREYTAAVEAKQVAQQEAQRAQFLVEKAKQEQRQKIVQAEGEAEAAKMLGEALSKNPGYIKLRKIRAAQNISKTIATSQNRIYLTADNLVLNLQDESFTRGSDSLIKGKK

[7] = target: SW480 colon carcinoma cells lysate proteins (Homo sapiens, UniProt P14625); conditions: PreyGene HSP90B1
SW480 colon carcinoma cells lysate proteins (Homo sapiens, UniProt P14625), sequence (P14625 22-803): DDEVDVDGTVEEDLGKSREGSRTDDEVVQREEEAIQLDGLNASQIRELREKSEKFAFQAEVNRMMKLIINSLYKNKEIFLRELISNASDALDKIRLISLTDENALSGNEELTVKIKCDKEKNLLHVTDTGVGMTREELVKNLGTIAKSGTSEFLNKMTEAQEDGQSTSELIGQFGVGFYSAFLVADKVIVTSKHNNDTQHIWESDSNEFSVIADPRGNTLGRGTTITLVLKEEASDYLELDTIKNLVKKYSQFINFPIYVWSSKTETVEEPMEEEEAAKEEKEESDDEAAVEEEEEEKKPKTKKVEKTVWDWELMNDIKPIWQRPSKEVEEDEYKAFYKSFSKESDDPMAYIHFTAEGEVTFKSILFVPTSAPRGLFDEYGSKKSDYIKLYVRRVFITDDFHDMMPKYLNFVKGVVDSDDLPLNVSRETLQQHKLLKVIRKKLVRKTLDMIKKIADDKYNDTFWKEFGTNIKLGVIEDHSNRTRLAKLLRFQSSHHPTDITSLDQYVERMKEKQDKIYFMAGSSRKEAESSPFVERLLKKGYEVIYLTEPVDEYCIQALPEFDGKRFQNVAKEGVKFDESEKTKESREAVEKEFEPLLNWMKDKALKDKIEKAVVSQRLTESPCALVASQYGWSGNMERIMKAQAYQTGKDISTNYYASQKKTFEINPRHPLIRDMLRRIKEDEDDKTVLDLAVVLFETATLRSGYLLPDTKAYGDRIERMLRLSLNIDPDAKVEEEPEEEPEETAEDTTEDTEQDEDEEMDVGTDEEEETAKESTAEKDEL

[8] = target: T3, SW480 colon carcinoma cells lysate proteins (Homo sapiens, UniProt P50395); conditions: PreyGene GDI2
T3 sequence (P50395 1-445): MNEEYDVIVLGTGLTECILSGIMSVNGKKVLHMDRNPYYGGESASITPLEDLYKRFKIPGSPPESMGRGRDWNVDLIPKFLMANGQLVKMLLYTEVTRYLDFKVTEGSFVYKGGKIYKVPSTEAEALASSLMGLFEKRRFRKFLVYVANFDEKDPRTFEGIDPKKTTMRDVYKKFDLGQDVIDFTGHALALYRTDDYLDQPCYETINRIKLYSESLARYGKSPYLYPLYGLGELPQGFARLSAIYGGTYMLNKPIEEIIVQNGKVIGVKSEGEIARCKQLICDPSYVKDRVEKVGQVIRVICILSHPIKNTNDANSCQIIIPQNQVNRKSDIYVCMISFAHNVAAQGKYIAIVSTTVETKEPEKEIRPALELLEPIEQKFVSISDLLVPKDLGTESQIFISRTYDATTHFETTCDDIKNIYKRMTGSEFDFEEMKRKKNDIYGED

[9] = target: SW480 colon carcinoma cells lysate proteins (Homo sapiens, UniProt P39687); conditions: PreyGene ANP32A
[10] = target: T4, SW480 colon carcinoma cells lysate proteins (Homo sapiens, UniProt Q96FQ6); conditions: PreyGene S100A16; SW480 cells
T4 sequence (Q96FQ6 1-103): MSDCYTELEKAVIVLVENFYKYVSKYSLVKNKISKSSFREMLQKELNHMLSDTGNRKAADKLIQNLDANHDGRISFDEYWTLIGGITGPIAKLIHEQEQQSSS

[11] = target: SW480 colon carcinoma cells lysate proteins (Homo sapiens, UniProt Q9BQE3); conditions: PreyGene TUBA1C; SW480 cells
SW480 colon carcinoma cells lysate proteins (Homo sapiens, UniProt Q9BQE3), sequence (Q9BQE3 whole entry): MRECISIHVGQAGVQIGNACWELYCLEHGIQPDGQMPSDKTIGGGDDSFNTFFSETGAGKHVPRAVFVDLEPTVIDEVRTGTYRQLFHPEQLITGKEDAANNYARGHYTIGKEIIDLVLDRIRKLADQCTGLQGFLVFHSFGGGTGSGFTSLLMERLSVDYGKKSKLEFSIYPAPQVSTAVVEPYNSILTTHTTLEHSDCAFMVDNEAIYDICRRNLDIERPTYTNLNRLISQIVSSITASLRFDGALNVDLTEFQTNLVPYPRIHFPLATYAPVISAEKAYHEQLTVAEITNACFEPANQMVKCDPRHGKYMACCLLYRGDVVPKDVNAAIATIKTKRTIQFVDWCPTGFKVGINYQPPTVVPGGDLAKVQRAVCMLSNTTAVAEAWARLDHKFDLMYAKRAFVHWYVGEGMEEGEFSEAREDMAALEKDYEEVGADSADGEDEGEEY

C[C@H](Oc1cc(-c2cnn(C3CCNCC3)c2)cnc1N)c1c(Cl)ccc(F)c1Cl [(5)-crizotinib]
AvgP [1]: 0 | SC.Exp. 1-1 [1]: 1 | SC.Exp. 1-2 [1]: 1 | SC.Exp. 2-1 [1]: 0 | SC.Exp. 2-2 [1]: 1 | SC.Exp. Sum [1]: 3 | AvgP [2]: 0.3707 | SC.Exp. 1-1 [2]: 2 | SC.Exp. 1-2 [2]: 2 | SC.Exp. 2-1 [2]: 0 | SC.Exp. 2-2 [2]: 0 | Sum (SC.Exp.) [2]: 4 | AvgP [3]: 0.394 | SC.Exp. 1-1 [3]: 8 | SC.Exp. 1-2 [3]: 8 | SC.Exp. 2-1 [3]: 0 | SC.Exp. 2-2 [3]: 0 | Sum (SC.Exp.) [3]: 16 | AvgP [4]: 0.4696 | SC.Exp. 1-1 [4]: 3 | SC.Exp. 1-2 [4]: 3 | SC.Exp. 2-1 [4]: 4 | SC.Exp. 2-2 [4]: 3 | Sum (SC.Exp.) [4]: 13 | AvgP [5]: 0.4369 | SC.Exp. 1-1 [5]: 3 | SC.Exp. 1-2 [5]: 4 | SC.Exp. 2-1 [5]: 0 | SC.Exp. 2-2 [5]: 0 | Sum (SC.Exp.) [5]: 7 | AvgP [6]: 0 | SC.Exp. 1-1 [6]: 9 | SC.Exp. 1-2 [6]: 8 | SC.Exp. 2-1 [6]: 3 | SC.Exp. 2-2 [6]: 5 | SC.Exp. Sum [6]: 25 | AvgP [7]: 0.228 | SC.Exp. 1-1 [7]: 13 | SC.Exp. 1-2 [7]: 8 | SC.Exp. 2-1 [7]: 0 | SC.Exp. 2-2 [7]: 0 | Sum (SC.Exp.) [7]: 21 | AvgP [8]: 0.1854 | SC.Exp. 1-1 [8]: 4 | SC.Exp. 1-2 [8]: 0 | SC.Exp. 2-1 [8]: 0 | SC.Exp. 2-2 [8]: 0 | Sum (SC.Exp.) [8]: 4 | AvgP [9]: 0.5951 | SC.Exp. 1-1 [9]: 1 | SC.Exp. 1-2 [9]: 1 | SC.Exp. 2-1 [9]: 1 | SC.Exp. 2-2 [9]: 3 | Sum (SC.Exp.) [9]: 6 | AvgP [10]: 0 | SC.Exp. 1-1 [10]: 1 | SC.Exp. 1-2 [10]: 0 | SC.Exp. 2-1 [10]: 0 | SC.Exp. 2-2 [10]: 0 | SC.Exp. Sum [10]: 1 | AvgP [11]: 0 | SC.Exp. 1-1 [11]: 1 | SC.Exp. 1-2 [11]: 1 | SC.Exp. 2-1 [11]: 0 | SC.Exp. 2-2 [11]: 1 | SC.Exp. Sum [11]: 3
